Measurements taken from US20230312481A1, “SUBSTITUTED (PHTHALAZIN-1-YLMETHYL)UREAS, SUBSTITUTED N-(PHTHALAZIN-1-YLMETHYL)AMIDES, AND ANALOGUES THEREOF” (priority 2020, published 2023).
pEC50: −log10 of the molar value.

tested on: HBV rcDNA in HepDE19 cells; test: HepDE19 assay with bDNA quantitation of HBV rcDNA; assay type: cell-based, hepatitis B virus; settings: HepDE19 cells, 7 day incubation, rcDNA measured by Quantigene 2.0 bDNA assay; top concentration 25 µM; read-out: DE-19bDNA EC50
Method in brief: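 HepDE19 cells were induced by tetracycline withdrawal, then treated with compounds (0.5% DMSO final) for 7 days at 37 °C. HBV rcDNA measured by bDNA assay with HBV-specific probes. Viability assessed on replicate plates (5,000 cells/well, 4 days) by CellTiter-Glo ATP content.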

Row | SMILES | pEC50
1 | CC(c1n[nH]c(=O)c2cc(F)c(F)cc12)N(C)C(=O)c1cc(F)c(Cl)c(F)c1 (single isomer, unassigned) [Compound 95, 4-chloro-N-(1-(6,7-difluoro-4-oxo-3,4-dihydrophthalazin-1-yl)ethyl)-3,5-difluoro-N-methylbenzamide] | 7.10
2 | CC(c1n[nH]c(=O)c2cc(F)c(F)cc12)N(C)C(=O)c1cc2sc(F)cc2[nH]1 (single isomer, unassigned) [Compound 103, N-(1-(6,7-difluoro-4-oxo-3,4-dihydrophthalazin-1-yl)ethyl)-2-fluoro-N-methyl-4H-thieno[3,2-b]pyrrole-5-carboxamide] | 7.22
3 | CC(c1n[nH]c(=O)c2cc(F)c(F)cc12)N(C)C(=O)c1cnc(C(F)(F)F)c(Cl)c1 (single isomer, unassigned) [Compound 92, 5-chloro-N-(1-(6,7-difluoro-4-oxo-3,4-dihydrophthalazin-1-yl)ethyl)-N-methyl-6-(trifluoromethyl)nicotinamide] | < 4.60
4 | CC(C)CN(C(=O)Nc1ccc(F)c(Cl)c1)C(C)c1n[nH]c(=O)c2ccccc12 (single isomer, unassigned) [Compound 6, 3-(3-chloro-4-fluoro-phenyl)-1-isobutyl-1-[1-(4-oxo-3H-phthalazin-1-yl)ethyl]urea] | 5.77
5 | CC(c1n[nH]c(=O)c2cc(F)c(F)cc12)N(C)C(=O)c1cc2c(C(F)F)cccn2c1 (single isomer, unassigned) [Compound 98, N-(1-(6,7-difluoro-4-oxo-3,4-dihydrophthalazin-1-yl)ethyl)-8-(difluoromethyl)-N-methylindolizine-2-carboxamide] | 5.13
6 | CC(c1n[nH]c(=O)c2ccccc12)N(C)C(=O)Nc1ccc(F)c(Cl)c1 (single isomer, unassigned) [Compound 3, 3-(3-chloro-4-fluoro-phenyl)-1-methyl-1-[1-(4-oxo-3H-phthalazin-1-yl)ethyl]urea] | 4.85

same assay, conditions: Hepatitis B virus, HepDE19, 168 h, HepDE19 cells, 7 day incubation, rcDNA measured by Quantigene 2.0 bDNA assay; top concentration 25 µM; read-out: DE-19bDNA EC50

Row | SMILES | pEC50
7 | CC(c1n[nH]c(=O)c2cc(F)c(F)cc12)N(C)C(=O)c1ccc(Cl)c(F)c1 (racemic) [Compound 64, 4-chloro-N-(1-(6,7-difluoro-4-oxo-3,4-dihydrophthalazin-1-yl)ethyl)-3-fluoro-N-methylbenzamide] | 6.85
8 | CC(c1n[nH]c(=O)c2cc(F)c(F)cc12)N(C)C(=O)c1cc2c(F)cc(F)cc2[nH]1 (racemic) [Compound 60, N-(1-(6,7-difluoro-4-oxo-3,4-dihydrophthalazin-1-yl)ethyl)-4,6-difluoro-N-methyl-1H-indole-2-carboxamide] | 7.30
9 | CC(c1n[nH]c(=O)c2cc(Cl)ccc12)N(C)C(=O)Nc1ccc(F)c(Cl)c1 (racemic) [Compound 12, 3-(3-chloro-4-fluorophenyl)-1-(1-(6-chloro-4-oxo-3,4-dihydrophthalazin-1-yl)ethyl)-1-methylurea] | 6.59
10 | CC(c1nn(C)c(=O)c2cc(F)c(F)cc12)N(CCCO)C(=O)Nc1ccc(F)cc1 (racemic) [Compound 26, 1-(1-(6,7-difluoro-3-methyl-4-oxo-3,4-dihydrophthalazin-1-yl)ethyl)-3-(4-fluorophenyl)-1-(3-hydroxypropyl)urea] | 7.51
11 | CC(C)CN(C(=O)Nc1ccc(F)c(Cl)c1)C(C)c1nn(C)c(=O)c2cc(F)c(F)cc12 (racemic) [Compound 23, 3-(3-chloro-4-fluorophenyl)-1-(1-(6,7-difluoro-3-methyl-4-oxo-3,4-dihydrophthalazin-1-yl)ethyl)-1-isobutylurea] | 8.52
12 | CC(c1nn(C)c(=O)c2cc(F)c(F)cc12)N(CCCO)C(=O)Nc1ccc(F)c(Cl)c1 (racemic) [Compound 25, 3-(3-chloro-4-fluorophenyl)-1-(1-(6,7-difluoro-3-methyl-4-oxo-3,4-dihydrophthalazin-1-yl)ethyl)-1-(3-hydroxypropyl)urea] | 8.00
13 | CC(C)CN(C(=O)Nc1ccc(F)c(Cl)c1)C(C)c1nn(C)c(=O)c2ccccc12 (racemic) [Compound 8, 3-(3-chloro-4-fluorophenyl)-1-isobutyl-1-(1-(3-methyl-4-oxo-3,4-dihydrophthalazin-1-yl)ethyl)urea] | 7.70
14 | CC(c1n[nH]c(=O)c2cc(F)c(F)cc12)N(C)C(=O)c1cc2ccc(F)cc2[nH]1 (racemic) [Compound 52, N-(1-(6,7-difluoro-4-oxo-3,4-dihydrophthalazin-1-yl)ethyl)-6-fluoro-N-methyl-1H-indole-2-carboxamide] | 7.37
15 | CC(c1n[nH]c(=O)c2cc(F)c(F)cc12)N(C)C(=O)c1cccc(C(F)F)c1 (racemic) [Compound 71, N-(1-(6,7-difluoro-4-oxo-3,4-dihydrophthalazin-1-yl)ethyl)-3-(difluoromethyl)-N-methylbenzamide] | 6.66
16 | CC(c1nn(C)c(=O)c2cc(F)c(F)cc12)N(CCS(=O)(=O)NC(=O)Nc1ccc(F)c(Cl)c1)C(=O)Nc1ccc(F)c(Cl)c1 (racemic) [Compound 30, 3-(3-chloro-4-fluoro-phenyl)-1-[2-[(3-chloro-4-fluorophenyl)carbamoylsulfamoyl]ethyl]-1-[1-(6,7-difluoro-3-methyl-4-oxo-phthalazin-1-yl)ethyl]urea] | 7.24
17 | CC(c1n[nH]c(=O)c2cc(F)c(F)cc12)N(C)C(=O)c1cc2c(F)cccn2c1 (racemic) [Compound 77, N-(1-(6,7-difluoro-4-oxo-3,4-dihydrophthalazin-1-yl)ethyl)-8-fluoro-N-methylindolizine-2-carboxamide] | 5.08

same assay, conditions: Hepatitis B virus, HepDE19, 168 h, read-out: DE-19bDNA EC50

Row | SMILES | pEC50
18 | C[C@H](c1nn(C)c(=O)c2cc(F)c(F)cc12)N(C)C(=O)Nc1ccc(F)c(Cl)c1 [Compound 36, (R)-3-(3-chloro-4-fluorophenyl)-1-[1-(6,7-difluoro-3-methyl-4-oxo-phthalazin-1-yl)ethyl]-1-methyl-urea] | 7.89
19 | C[C@@H](c1nn(C)c(=O)c2cc(F)c(F)cc12)N(C)C(=O)Nc1ccc(F)c(Cl)c1 [Compound 37, (S)-3-(3-chloro-4-fluorophenyl)-1-(1-(6,7-difluoro-3-methyl-4-oxo-3,4-dihydrophthalazin-1-yl)ethyl)-1-methylurea] | 5.64
20 | CC(c1n[nH]c(=O)c2cc(F)c(F)cc12)N(C)C(=O)c1cc2cc(F)ccc2[nH]1 (racemic) [Compound 51, N-(1-(6,7-difluoro-4-oxo-3,4-dihydrophthalazin-1-yl)ethyl)-5-fluoro-N-methyl-1H-indole-2-carboxamide] | 7.41
21 | C[C@H](c1n[nH]c(=O)c2cc(F)c(F)cc12)N(C)C(=O)Nc1ccc(F)c(F)c1 [Compound 41, (R)(1-(6,7-difluoro-4-oxo-3,4-dihydrophthalazinyl)ethyl)methyl-3-(3,4-difluorophenyl)urea] | 7.62
22 | CC(C)CN(C(=O)Nc1ccccc1)C(C)c1n[nH]c(=O)c2cc(F)c(F)cc12 (racemic) [Compound 28, 1-(1-(6,7-difluoro-4-oxo-3,4-dihydrophthalazin-1-yl)ethyl)-1-isobutyl-3-phenylurea] | 7.92
